Results taken from paper PMC6131205, “Controlling the regioselectivity and stereospecificity of FAD-dependent polyamine oxidases with the use of amine-attached guide molecules as conformational modulators” (Bioscience Reports, 2018).
Read-outs that look alike come from different tables or passages of the source.

Assays:
[1] = biological target: T1, Fms1 (Saccharomyces cerevisiae, UniProt P50264); test: Substrate kinetics with recombinant Fms1 (HPLC of reaction products);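 note: recombinant polyamine oxidases incubated with substrate, product amines (putrescine, 1,3-diaminopropane or butane-1,3-diamine) quantified by HPLC after post-column o-phthalaldehyde derivatization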
Protocol: (§1) HPLC with post-column o-phthalaldehyde-derivatization was used to determine the concentrations of the reaction products Put and 1,3-diaminopropane (DAP) or butane-1,3-diamine respectively as described in [30]. Fms1 activity was determined essentially as described for human recombinant APAO, but reactions were carried out in 100 mM Glycine-NaOH buffer at pH 9.0 in a water bath at +25°C [29, 30].
The reactions were carried out in 1 triplicate at pH 9.0 in 100 mM Glycine-NaOH at +25°C.
values for N -Ac-MeSpd enantiomers were determined by using substrate concentrations of 25, 50,
for Rac-MeSpd 30 min, (R)-MeSpd 20 min and (S)-MeSpd 40 minutes.
The reactions were carried out in triplicate at pH 9.0 in 100 mM Glycine-NaOH at +25°C.
values for MeSpd enantiomers were determined by using substrate concentrations of 100, 300, 600,
1000, 2000 and 4000 M. Recombinant Fms1 was 3.8 g/reaction and the incubation time 60
incubated for 30 min (half of the reaction time of an ordinary sample). E1 cleavage was monitored
by HPLC by measuring Put formation and E2 cleavage by determining butane-1,3-diamine content.

[2] = biological target: T1, Fms1; test: Fms1 cleavage of 1 mM Spd supplemented with aldehydes (E1/E2 regioselectivity); format: biochemical, yeast; design: made in house; conditions: for E1 cleavage (Put) kcat / E2 cleavage (DAP) kcat / Ratio of E1/E2: fixed 1 mM Spd, aldehyde 25-1000 μM, pH 9.0, 25°C;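 for all read-outs here: recombinant yeast Fms1 reactions in Glycine-NaOH buffer, with products Put and DAP quantified by HPLC using post-column o-phthalaldehyde derivatization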
Protocol: as §1

[3] = biological target: T1, Fms1; design: made in house; method as in PMID 21067138; conditions: cited from earlier work
[4] = biological target: T2, human recombinant APAO (Homo sapiens, UniProt Q6QHF9); conditions: cited from earlier work
T2 construct: made in house

[5] = biological target: T2, human recombinant APAO; test: Substrate kinetics with human recombinant APAO (HPLC of reaction products); format: biochemical
[6] = biological target: SMOX (Homo sapiens, UniProt Q9NWM0); test: Inhibition of SMOX (Ki, peroxidase-coupled fluorescence, Spm as substrate)
Protocol: Reaction mixtures contained 40 units/ml horseradish peroxidase (Roche), 1 mM homovanillic acid in 100 mM Glycine-NaOH at pH 9.0 supplemented with 40 ng of SMOX. […] Dilutions of fresh H2O2 were used as standard.

[7] = Supplementary Table 1, pH 9.0, 100 mM Glycine-NaOH, 25°C, Put formation
[8] = 1 mM Spm, Glycine-NaOH buffer pH 9.0
[9] = 100 mM Glycine-NaOH pH 9.5, 5 mM DTT

T1 sequence (P50264 whole entry): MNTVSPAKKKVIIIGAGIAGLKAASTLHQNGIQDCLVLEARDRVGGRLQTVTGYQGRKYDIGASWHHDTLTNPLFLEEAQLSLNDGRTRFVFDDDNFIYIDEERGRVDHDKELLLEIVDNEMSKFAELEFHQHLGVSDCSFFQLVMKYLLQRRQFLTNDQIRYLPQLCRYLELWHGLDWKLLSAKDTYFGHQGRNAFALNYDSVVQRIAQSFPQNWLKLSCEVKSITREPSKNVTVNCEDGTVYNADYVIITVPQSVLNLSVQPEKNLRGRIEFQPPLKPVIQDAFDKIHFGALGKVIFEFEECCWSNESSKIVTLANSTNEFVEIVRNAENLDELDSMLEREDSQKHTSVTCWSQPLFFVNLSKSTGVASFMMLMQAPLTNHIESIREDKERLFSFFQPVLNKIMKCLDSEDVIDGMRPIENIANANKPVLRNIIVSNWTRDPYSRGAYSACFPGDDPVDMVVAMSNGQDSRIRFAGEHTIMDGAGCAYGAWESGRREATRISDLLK
T2 sequence (Q6QHF9 whole entry): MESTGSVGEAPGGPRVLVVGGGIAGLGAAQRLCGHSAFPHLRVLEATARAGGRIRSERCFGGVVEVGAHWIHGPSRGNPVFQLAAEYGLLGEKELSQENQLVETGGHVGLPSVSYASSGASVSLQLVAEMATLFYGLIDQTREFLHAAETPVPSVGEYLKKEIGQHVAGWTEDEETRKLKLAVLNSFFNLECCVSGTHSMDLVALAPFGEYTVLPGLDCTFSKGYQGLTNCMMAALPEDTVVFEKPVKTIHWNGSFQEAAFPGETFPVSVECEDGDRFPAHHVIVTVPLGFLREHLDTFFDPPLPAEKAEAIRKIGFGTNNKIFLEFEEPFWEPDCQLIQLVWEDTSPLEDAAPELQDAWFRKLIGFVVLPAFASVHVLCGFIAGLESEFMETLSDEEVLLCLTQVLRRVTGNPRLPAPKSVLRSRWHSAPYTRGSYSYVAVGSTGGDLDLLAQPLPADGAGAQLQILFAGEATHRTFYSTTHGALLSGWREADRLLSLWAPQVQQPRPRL
Sequence of SMOX (Q9NWM0 whole entry): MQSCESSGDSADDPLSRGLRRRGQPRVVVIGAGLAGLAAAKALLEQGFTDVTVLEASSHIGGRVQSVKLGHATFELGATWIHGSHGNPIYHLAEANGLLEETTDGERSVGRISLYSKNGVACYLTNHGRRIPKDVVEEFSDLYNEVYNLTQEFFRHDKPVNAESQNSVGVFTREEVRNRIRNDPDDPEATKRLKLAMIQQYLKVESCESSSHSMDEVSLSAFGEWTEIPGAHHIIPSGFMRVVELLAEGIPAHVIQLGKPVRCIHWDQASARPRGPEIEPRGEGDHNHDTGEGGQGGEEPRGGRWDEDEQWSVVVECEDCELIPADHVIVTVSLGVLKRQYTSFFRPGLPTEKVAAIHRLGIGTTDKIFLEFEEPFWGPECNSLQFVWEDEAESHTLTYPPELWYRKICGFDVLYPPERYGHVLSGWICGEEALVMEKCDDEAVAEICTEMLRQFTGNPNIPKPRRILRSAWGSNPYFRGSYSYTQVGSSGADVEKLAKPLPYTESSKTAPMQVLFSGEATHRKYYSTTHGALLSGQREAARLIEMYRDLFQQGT

## CC(=O)NC(C)CCNCCCCN (stereo not shown) [N1-Ac-MeSpd, N8-Acetyl-1,8-diamino-5-azanonane]
[1]; [7]
  Vmax: 50 ± 3 nmol/min/mg
  kcat: 0.05 ± 0.00 s⁻¹

## O=Cc1ccccn1 [C00007]
[2]
  E1 cleavage (Put) kcat: 0.49 ± 0.01 s⁻¹
  E2 cleavage (DAP) kcat: 0.49 ± 0.01 s⁻¹
  Ratio of E1/E2: 2.2

## O=Cc1ccccc1O [C00002]
[2]
  E1 cleavage (Put) kcat: 0.54 ± 0.01 s⁻¹
  E2 cleavage (DAP) kcat: 0.08 ± 0.00 s⁻¹
  Ratio of E1/E2: 5.2

## CC(=O)NCCCNCCCCN [N^1-AcSpd, reference compound]
[1]; [7]
  kcat: 65 ± 2 s⁻¹

## O=Cc1ccccc1[N+](=O)[O-] [A7]
[2]; Spd plus aldehyde vs Spd alone
  increase of the ratio of the cleavage pathways (E1/E2): 5 fold

## O=Cc1ccc([N+](=O)[O-])cc1 [C00012]
[2]
  E1 cleavage (Put) kcat: 0.37 ± 0.00 s⁻¹
  E2 cleavage (DAP) kcat: 0.05 ± 0.00 s⁻¹
  Ratio of E1/E2: 6.4

## O=CC1CCCCC1 [C00010]
[2]
  E1 cleavage (Put) kcat: 1.41 ± 0.04 s⁻¹
  E2 cleavage (DAP) kcat: 0.43 ± 0.01 s⁻¹
  Ratio of E1/E2: 5.4

## CC(=O)NCCCNCCCCNCCCN [N^1-AcSpm]
[3]
  kcat: 15.1 ± 0.4 s⁻¹

## COc1ccc(C=O)cc1 [C00009]
[2]
  E1 cleavage (Put) kcat: 0.13 ± 0.00 s⁻¹
  E2 cleavage (DAP) kcat: 0.22 ± 0.00 s⁻¹

## CC(=O)N[C@H](C)CCNCCCCN [N^1-Ac-(R)-MeSpd]
[1]; [7]
  Vmax: 61 ± 4 nmol/min/mg
  kcat: 0.06 ± 0.00 s⁻¹
[4]
  Km: 95 µM
  kcat: 9 s⁻¹
[5]; APAO, ratio of kcat/Km
  specificity constant ratio (R)-enantiomer/(S)-enantiomer: 13

## NCCCCNCCCN [Spd, spermidine, reference compound]
[1]; substrate alone, no aldehyde, pH 9.0, 25°C
  Ratio of E1/E2: 7.5

## O=Cc1ccccc1[N+](=O)[O-] [C00011]
[2]
  E1 cleavage (Put) kcat: 1.06 ± 0.04 s⁻¹
  E2 cleavage (DAP) kcat: 0.03 ± 0.00 s⁻¹

## NCCCNCCCCNCCCN [Spm, spermine, reference compound]
[3]
  kcat: 39.0 ± 1.5 s⁻¹
[1]; 1 mM Spm, 100 mM Tris/HCl or 170 mM Bis/Tris buffers pH 9.0
  reaction velocity: 36.1 ± 0.24 µmol/mg/min
[1]; 1 mM Spm, 170 mM Bis/Tris
  pH of highest reaction velocity: 9.25
[1]; 1 mM Spm, 170 mM Bis/Tris, pH 8.0
  reaction velocity in comparison with rate at the optimum pH: ~ 15%
[1]; 1 mM Spm, 170 mM Bis/Tris, pH 8.5
  reaction velocity in comparison with rate at the optimum pH: 60%
[1]; [8]
  activity of recombinant Fms1: 30.9 ± 0.45 µmol/mg/min
  kcat: 30.3 ± 0.44 s⁻¹

## C[C@@H](CCNCCCCN)NC(=O)c1ccccc1 [Bz-(S)-MeSpd]
[6]; Ki (best-fit value, noncompetitive inhibition), GraphPad Prism global fit, supplement
  Ki: 846 µM
[6]; Ki, non-competitive fit, 25, 50 or 100 µM Spm, pH 9.0, 37°C
  Ki: 846 ± 82 µM
[5]; [9]
  Km: 200 ± 200 nM
  Vmax: 0.03 ± 0.00 µmol/min/mg
  kcat: 0.03 ± 0.00 s⁻¹

## Cc1ncc(CO)c(C=O)c1O [C00008]
[2]
  E1 cleavage (Put) kcat: 1.13 ± 0.03 s⁻¹
